Test results taken from patent US20120214862A1, “MODULATION OF FACTOR 7 EXPRESSION” (ISIS Pharmaceuticals, Inc., priority 2009, published 2012).
In the oligonucleotide strings, read from the 5' end, every base follows the letter of its sugar. An asterisk marks phosphorothioate; unmarked linkages are phosphodiester. Other units and linkages are bracketed, terminal groups are in braces. A string of capitals states the bases alone. e = 2'-O-(2-methoxyethyl) (MOE); [5mC] = 5-methylcytosine; d = 2'-deoxy (DNA)

test system: human Factor 7 mRNA; experiment: Antisense inhibition of human Factor 7 mRNA in HepB3 cells, lipofectin, 50 nM, real-time RT-PCR; assay type: cell-based; conditions: Example 1; HepB3 cells, lipofectin, 50 nM, ~24 h, relative to untreated control cells
Procedure, shortened: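 Cells plated at 4,000 per well were transfected and harvested after approximately 24 hours of treatment. Transcript levels, measured with primer probe set RTS 2927, were normalised to total RNA by RIBOGREEN®. Values are percent inhibition relative to untreated control cells.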

Substance	% Inhibition (human Factor 7 mRNA) [%]
407609 (antisense eA*eG*eA*eA*eG*d[5mC]*dA*dG*dA*dT*dA*dT*dA*dG*dG*eA*e[5mC]*eT*eG*eG) [compound 407609]	35
407622 (antisense eT*e[5mC]*eA*e[5mC]*e[5mC]*dA*dA*d[5mC]*dA*dA*d[5mC]*dA*dG*dG*dA*e[5mC]*e[5mC]*eT*eG*e[5mC]) [compound 407622]	55
407938 (antisense e[5mC]*eA*e[5mC]*e[5mC]*e[5mC]*dA*dG*d[5mC]*dG*dA*dA*dG*dG*dG*dA*eG*eA*eA*eA*eT) [compound 407938]	60
407903 (antisense e[5mC]*e[5mC]*eG*e[5mC]*eG*dG*dA*dG*dA*d[5mC]*d[5mC]*dA*d[5mC]*d[5mC]*d[5mC]*eA*eG*eA*eT*eG) [compound 407903]	98
407959 (antisense eG*e[5mC]*eA*eG*eG*dG*dA*dT*dG*dG*d[5mC]*dA*dT*d[5mC]*dG*eA*eG*eT*e[5mC]*e[5mC]) [compound 407959]	0
407945 (antisense eA*eA*eT*e[5mC]*eA*dT*dG*dG*dG*d[5mC]*dA*dA*d[5mC]*d[5mC]*d[5mC]*eA*eG*eT*eG*eG) [compound 407945]	56
407914 (antisense e[5mC]*e[5mC]*eA*eG*e[5mC]*dT*dG*dA*d[5mC]*dG*dA*dT*dG*d[5mC]*d[5mC]*e[5mC]*eG*eT*e[5mC]*eA) [compound 407914]	82
407907 (antisense eA*eA*eT*eG*eA*dG*dA*dA*dG*d[5mC]*dG*d[5mC]*dA*d[5mC]*dG*eA*eA*eG*eG*e[5mC]) [compound 407907]	35
407607 (antisense eT*eG*eG*eA*eG*d[5mC]*dT*dG*dG*dT*d[5mC]*d[5mC]*dT*dT*dG*e[5mC]*eA*eG*eG*eA) [compound 407607]	76

same assay, conditions: Example 4; HepB3 cells, lipofectin, 50 nM, ~24 h, relative to untreated control

Substance	% Inhibition (human Factor 7 mRNA) [%]
422122 (antisense eA*eG*e[5mC]*eG*e[5mC]*dG*dG*dA*dA*dG*dA*dA*dG*dG*dG*eA*e[5mC]*eG*eG*eA) [compound 422122]	24
422269 (antisense eG*eA*dG*d[5mC]*dG*d[5mC]*dG*dG*dA*dA*dG*dA*dA*dG*dG*eG*eA*e[5mC]*eG*eG) [compound 422269]	27
422123 (antisense eG*eA*eG*e[5mC]*eG*d[5mC]*dG*dG*dA*dA*dG*dA*dA*dG*dG*eG*eA*e[5mC]*eG*eG) [compound 422123]	16
422124 (antisense eT*eG*eA*eG*e[5mC]*dG*d[5mC]*dG*dG*dA*dA*dG*dA*dA*dG*eG*eG*eA*e[5mC]*eG) [compound 422124]	0

same assay, conditions: Example 6 microwalk, nucleobases 15098 to 15122 of SEQ ID NO: 1; HepB3, lipofectin, 50 nM, ~24 h

Substance	% Inhibition (human Factor 7 mRNA) [%]
422135 (antisense eA*eG*e[5mC]*eA*e[5mC]*dA*d[5mC]*dA*dT*dG*dG*dA*dG*dT*d[5mC]*eA*eG*e[5mC]*eA*eT) [compound 422135]	53
422207 (antisense e[5mC]*eA*e[5mC]*dA*d[5mC]*dA*dT*dG*dG*dA*dG*dT*d[5mC]*dA*dG*d[5mC]*dA*eT*e[5mC]*eG) [compound 422207]	41

same assay, conditions: HepB3 cells, lipofectin, 50 nM antisense oligonucleotide, approximately 24 hours, primer probe set RTS 2927, relative to untreated control

Substance	% Inhibition of human Factor 7 mRNA levels [%]
416433 (antisense eA*eG*eA*eA*eA*dT*d[5mC]*d[5mC]*dA*dG*dA*dA*d[5mC]*dA*dG*e[5mC]*eT*eT*e[5mC]*eG) [compound 416433]	0
416447 (antisense e[5mC]*eA*eT*eG*eG*dA*dT*dA*dT*dT*d[5mC]*dA*dA*d[5mC]*dT*eG*eT*eG*eG*eG) [compound 416447]	17
416484 (antisense eT*eA*e[5mC]*eA*eG*d[5mC]*d[5mC]*dT*d[5mC]*dA*dA*dA*d[5mC]*dA*dT*e[5mC]*eT*eA*eT*e[5mC]) [compound 416484]	0
416530 (antisense eA*eG*eG*eG*eT*dA*dG*d[5mC]*d[5mC]*dT*dT*dT*dG*d[5mC]*d[5mC]*eT*eT*eG*eG*e[5mC]) [compound 416530]	35
416528 (antisense eT*eG*eA*eT*eA*dA*dA*dA*d[5mC]*d[5mC]*dT*d[5mC]*dT*dG*dG*eA*e[5mC]*eA*e[5mC]*e[5mC]) [compound 416528]	10

same assay, conditions: HepB3 cells; gapmers (5-10-5, 3-14-3, 2-13-5 MOE) targeted to nucleobases 4868 to 4899 of SEQ ID NO: 1

Substance	% Inhibition of human Factor 7 mRNA levels [%]
422213 (antisense eT*e[5mC]*eT*dG*d[5mC]*dA*dG*dG*dA*dG*d[5mC]*dG*dG*d[5mC]*d[5mC]*dT*dA*eA*eA*eT) [compound 422213]	67
422138 (antisense eT*e[5mC]*eT*eG*e[5mC]*dA*dG*dG*dA*dG*d[5mC]*dG*dG*d[5mC]*d[5mC]*eT*eA*eA*eA*eT) [compound 422138]	70

same assay, conditions: HepB3 cells; gapmers targeted to nucleobases 11830 to 11869 of SEQ ID NO: 1 (Table 9)

Substance	% Inhibition of human Factor 7 mRNA levels [%]
422174 (antisense eG*e[5mC]*eT*dG*dG*d[5mC]*dT*dG*dA*dG*dG*dA*dG*dA*d[5mC]*dA*dA*eT*eG*eG) [compound 422174]	55
422236 (antisense eA*eA*dT*dG*dG*dT*d[5mC]*dA*dG*dG*dG*d[5mC]*dT*dG*dG*eT*eT*eT*eT*eG) [compound 422236]	44
422241 (antisense eG*eA*dG*dA*d[5mC]*dA*dA*dT*dG*dG*dT*d[5mC]*dA*dG*dG*eG*e[5mC]*eT*eG*eG) [compound 422241]	61
422090 (antisense eG*eG*eT*e[5mC]*eA*dG*dG*dG*d[5mC]*dT*dG*dG*dT*dT*dT*eT*eG*eG*eA*eG) [compound 422090]	42
422092 (antisense eA*eT*eG*eG*eT*d[5mC]*dA*dG*dG*dG*d[5mC]*dT*dG*dG*dT*eT*eT*eT*eG*eG) [compound 422092]	36
422231 (antisense eT*e[5mC]*dA*dG*dG*dG*d[5mC]*dT*dG*dG*dT*dT*dT*dT*dG*eG*eA*eG*eG*eA) [compound 422231]	22

same assay, conditions: HepB3 cells; gapmers targeted to nucleobases 13760 to 13789 of SEQ ID NO: 1 (Table 10)

Substance	% Inhibition of human Factor 7 mRNA levels [%]
422109 (antisense e[5mC]*e[5mC]*e[5mC]*eG*e[5mC]*d[5mC]*dG*dG*d[5mC]*dT*d[5mC]*dT*dG*d[5mC]*dT*e[5mC]*eA*eT*e[5mC]*e[5mC]) [compound 422109]	68
422185 (antisense e[5mC]*eT*eG*d[5mC]*dG*d[5mC]*d[5mC]*dA*d[5mC]*d[5mC]*d[5mC]*dG*d[5mC]*d[5mC]*dG*dG*d[5mC]*eT*e[5mC]*eT) [compound 422185]	48
422255 (antisense eA*e[5mC]*d[5mC]*d[5mC]*dG*d[5mC]*d[5mC]*dG*dG*d[5mC]*dT*d[5mC]*dT*dG*d[5mC]*eT*e[5mC]*eA*eT*e[5mC]) [compound 422255]	30

same assay, conditions: HepB3 cells; gapmers targeted to nucleobases 14707 to 14732 of SEQ ID NO: 1 (Table 11)

Substance	% Inhibition of human Factor 7 mRNA levels [%]
422283 (antisense e[5mC]*eA*dG*d[5mC]*dA*dG*d[5mC]*d[5mC]*dT*dG*dA*dG*dG*d[5mC]*d[5mC]*eA*eG*e[5mC]*eA*eG) [compound 422283]	50
